{
  "source": "ChEMBL document CHEMBL1156471",
  "about": "“Targeting host cell furin proprotein convertases as a therapeutic strategy against bacterial toxins and viral pathogens” (J Biol Chem, 2007)",
  "data": [
    {"target": "Furin (Homo sapiens, UniProt P09958)", "sequence (P09958 whole entry)": "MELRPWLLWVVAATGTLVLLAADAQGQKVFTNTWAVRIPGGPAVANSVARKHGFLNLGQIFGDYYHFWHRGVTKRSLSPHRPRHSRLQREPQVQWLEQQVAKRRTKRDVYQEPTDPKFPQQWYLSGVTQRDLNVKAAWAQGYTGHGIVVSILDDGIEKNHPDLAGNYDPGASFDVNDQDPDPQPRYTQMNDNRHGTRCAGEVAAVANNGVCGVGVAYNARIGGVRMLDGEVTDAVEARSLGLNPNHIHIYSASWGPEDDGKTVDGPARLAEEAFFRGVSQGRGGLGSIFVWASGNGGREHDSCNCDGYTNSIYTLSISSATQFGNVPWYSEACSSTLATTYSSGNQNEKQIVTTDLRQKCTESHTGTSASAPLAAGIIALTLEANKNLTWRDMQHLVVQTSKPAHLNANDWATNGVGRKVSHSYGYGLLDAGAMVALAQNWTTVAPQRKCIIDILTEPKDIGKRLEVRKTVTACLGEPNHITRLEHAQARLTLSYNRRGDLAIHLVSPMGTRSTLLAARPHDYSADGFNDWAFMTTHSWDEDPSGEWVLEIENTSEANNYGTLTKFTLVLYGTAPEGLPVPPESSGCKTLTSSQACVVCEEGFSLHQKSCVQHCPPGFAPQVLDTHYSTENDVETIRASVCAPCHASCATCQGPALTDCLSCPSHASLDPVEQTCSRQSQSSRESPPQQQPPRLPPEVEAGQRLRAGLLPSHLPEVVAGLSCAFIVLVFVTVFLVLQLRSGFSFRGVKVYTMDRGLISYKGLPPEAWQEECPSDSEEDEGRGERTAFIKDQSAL", "units": {"Ki": "nM"}, "values": [
      {"compound": "CC[C@H](NC(=O)[C@H](CCCNC(=N)N)NC(=O)[C@H](CCC(N)=O)NC(=O)[C@@H]1CCCN1C(=O)[C@@H](N)[C@@H](C)O)C(=O)N[C@@H](CCCNC(=N)N)C(=O)N[C@@H](CCCNC(=N)N)C(=O)N[C@@H](CCCNC(=N)N)C(=O)N[C@@H](CCCCN)C(=O)N[C@@H](CCCCN)C(=O)N[C@@H](CCCNC(=N)N)C(=O)NCC(=O)O", "Ki": "> 100"},
      {"compound": "C[C@H](NC(=O)[C@H](CCCNC(=N)N)NC(=O)[C@H](CCC(N)=O)NC(=O)[C@@H]1CCCN1C(=O)[C@@H](N)[C@@H](C)O)C(=O)N[C@@H](CCCNC(=N)N)C(=O)N[C@@H](CCCNC(=N)N)C(=O)N[C@@H](CCCNC(=N)N)C(=O)N[C@@H](CCCCN)C(=O)N[C@@H](CCCCN)C(=O)N[C@@H](CCCNC(=N)N)C(=O)N[C@H](CCCNC(=N)N)C(=O)O", "Ki": "> 100"},
      {"compound": "C[C@@H](O)[C@H](N)C(=O)N1CCC[C@H]1C(=O)N[C@@H](CCCN=C(N)N)C(=O)N[C@@H](CCC(=O)O)C(=O)N[C@@H](CCCN=C(N)N)C(=O)N[C@@H](CCCN=C(N)N)C(=O)N[C@@H](CCCN=C(N)N)C(=O)N[C@@H](CCCCN)C(=O)N[C@@H](CCCCN)C(=O)N[C@@H](CCCNC(=N)N)C(=O)NCC(N)=O", "Ki": "> 100"},
      {"compound": "C[C@H](NC(=O)[C@H](CCCN=C(N)N)NC(=O)[C@H](CCC(N)=O)NC(=O)[C@@H]1CCCN1C(=O)[C@@H](N)[C@@H](C)O)C(=O)N[C@@H](CCCN=C(N)N)C(=O)N[C@@H](CCCN=C(N)N)C(=O)N[C@@H](CCCN=C(N)N)C(=O)N[C@@H](CCCCN)C(=O)N[C@@H](CCCCN)C(=O)N[C@@H](CCCN=C(N)N)C(=O)NCC(=O)O", "Ki": "> 100"},
      {"compound": "CSCC[C@H](NC(=O)[C@H](CCCN=C(N)N)NC(=O)[C@H](CCCCN)NC(=O)[C@H](CCCCN)NC(=O)[C@H](CCCN=C(N)N)NC(=O)[C@H](CCCN=C(N)N)NC(=O)[C@H](CCCN=C(N)N)NC(=O)[C@H](C)NC(=O)[C@H](CCCN=C(N)N)NC(=O)[C@@H]1CCCN1C(=O)[C@@H](N)[C@@H](C)O)C(N)=O", "Ki": "> 100"},
      {"compound": "C[C@H](NC(=O)[C@H](CCCN=C(N)N)NC(=O)[C@@H]1CCCN1C(=O)[C@@H](N)[C@@H](C)O)C(=O)N[C@@H](CCCN=C(N)N)C(=O)N[C@@H](CCCN=C(N)N)C(=O)N[C@@H](CCCN=C(N)N)C(=O)N[C@@H](CCCCN)C(=O)N[C@@H](CCCCN)C(=O)N[C@@H](CCCN=C(N)N)C(=O)N(C)CC(=O)O", "Ki": "> 100"},
      {"compound": "C[C@@H](O)[C@H](N)C(=O)N1CCC[C@H]1C(=O)N[C@@H](CCCN=C(N)N)C(=O)N[C@@H](CCCCN)C(=O)N[C@@H](CCCN=C(N)N)C(=O)N[C@@H](CCCN=C(N)N)C(=O)N[C@@H](CCCN=C(N)N)C(=O)N[C@@H](CCCCN)C(=O)N[C@@H](CCCCN)C(=O)N[C@@H](CCCN=C(N)N)C(=O)NCC(N)=O", "Ki": "> 100"},
      {"compound": "CC(C)C[C@H](NC(=O)[C@H](CCCNC(=N)N)NC(=O)[C@H](CCCCN)NC(=O)[C@H](CCCCN)NC(=O)[C@H](CCCNC(=N)N)NC(=O)[C@H](CCCNC(=N)N)NC(=O)[C@H](CCCNC(=N)N)NC(=O)[C@H](C)NC(=O)[C@H](CCCNC(=N)N)NC(=O)[C@@H]1CCCN1C(=O)[C@@H](N)[C@@H](C)O)C(N)=O", "Ki": "> 100"},
      {"compound": "C[C@@H](N)C(=O)N1CCC[C@H]1C(=O)N[C@@H](CCCNC(=N)N)C(=O)N[C@@H](CCC(=O)O)C(=O)N[C@@H](CCCNC(=N)N)C(=O)N[C@@H](CCCNC(=N)N)C(=O)N[C@@H](CCCNC(=N)N)C(=O)N[C@@H](CCCCN)C(=O)N[C@@H](CCCCN)C(=O)N[C@@H](CCCNC(=N)N)C(=O)NCC(N)=O", "Ki": "> 100"},
      {"compound": "C[C@H](NC(=O)[C@H](CCCNC(=N)N)NC(=O)[C@H](CCC(N)=O)NC(=O)[C@@H]1CCCN1C(=O)[C@@H](N)[C@@H](C)O)C(=O)N[C@@H](CCCNC(=N)N)C(=O)N[C@@H](CCCNC(=N)N)C(=O)N[C@@H](CCCNC(=N)N)C(=O)N[C@@H](CCCCN)C(=O)N[C@@H](CCCCN)C(=O)N[C@@H](CCCNC(=N)N)C(=O)N[C@@H](CCCCN)C(=O)O", "Ki": "> 100"},
      {"compound": "C[C@H](NC(=O)[C@H](CCCNC(=N)N)NC(=O)[C@@H]1CCCN1C(=O)[C@@H](N)[C@@H](C)O)C(=O)N[C@@H](CCCNC(=N)N)C(=O)N[C@@H](CCCNC(=N)N)C(=O)N[C@@H](CCCNC(=N)N)C(=O)N[C@@H](CCCCN)C(=O)N[C@@H](CCCCN)C(=O)N[C@@H](CCCNC(=N)N)C(=O)N[C@@H](CS)C(N)=O", "Ki": "> 100"},
      {"compound": "C[C@H](NC(=O)[C@H](C)NC(=O)[C@H](CCCN=C(N)N)NC(=O)[C@H](CCCN=C(N)N)NC(=O)[C@H](CCCN=C(N)N)NC(=O)[C@H](CCC(=O)O)NC(=O)[C@H](CCCN=C(N)N)NC(=O)[C@@H]1CCCN1C(=O)[C@@H](N)[C@@H](C)O)C(=O)N[C@@H](CCCN=C(N)N)C(=O)O", "Ki": "> 100"},
      {"compound": "C[C@@H](O)[C@H](N)C(=O)N1CCC[C@H]1C(=O)N[C@@H](CCCNC(=N)N)C(=O)N[C@@H](CCCNC(N)=O)C(=O)N[C@@H](CCCNC(=N)N)C(=O)N[C@@H](CCCNC(=N)N)C(=O)N[C@@H](CCCNC(=N)N)C(=O)N[C@@H](CCCCN)C(=O)N[C@@H](CCCCN)C(=O)N[C@@H](CCCNC(=N)N)C(=O)NCC(N)=O", "Ki": "> 100"},
      {"compound": "C[C@H](NC(=O)[C@H](CCCN=C(N)N)NC(=O)[C@@H]1CCCN1C(=O)[C@@H](N)[C@@H](C)O)C(=O)N[C@@H](CCCN=C(N)N)C(=O)N[C@@H](CCCN=C(N)N)C(=O)N[C@@H](CCCN=C(N)N)C(=O)N[C@@H](CCCCN)C(=O)N[C@@H](CCCCN)C(=O)N[C@@H](CCCN=C(N)N)C(=O)O", "Ki": 138},
      {"compound": "C[C@@H](O)[C@H](N)C(=O)N1CCC[C@H]1C(=O)N[C@@H](CCC(N)=O)C(=O)N[C@@H](CCCN=C(N)N)C(=O)N[C@@H](CC1CCCCC1)C(=O)N[C@@H](CCCN=C(N)N)C(=O)N[C@@H](CCCN=C(N)N)C(=O)N[C@@H](CCCN=C(N)N)C(=O)N[C@@H](CCCCN)C(=O)N[C@@H](CCCCN)C(=O)N[C@@H](CCCNC(=N)N)C(=O)NCC(=O)O", "Ki": "> 100"},
      {"compound": "C[C@@H](O)[C@H](N)C(=O)N1CCC[C@H]1C(=O)N[C@@H](CCCN=C(N)N)C(=O)N[C@H](CCCCN)C(=O)N[C@@H](CCCN=C(N)N)C(=O)N[C@@H](CCCN=C(N)N)C(=O)N[C@@H](CCCN=C(N)N)C(=O)N[C@@H](CCCCN)C(=O)N[C@@H](CCCCN)C(=O)N[C@@H](CCCN=C(N)N)C(=O)NCC(N)=O", "Ki": "> 100"},
      {"compound": "C[C@@H](O)[C@H](N)C(=O)N1CCC[C@H]1C(=O)N[C@@H](CCCNC(=N)N)C(=O)NCCC(=O)N[C@@H](CCCNC(=N)N)C(=O)N[C@@H](CCCNC(=N)N)C(=O)N[C@@H](CCCNC(=N)N)C(=O)N[C@@H](CCCCN)C(=O)N[C@@H](CCCCN)C(=O)N[C@@H](CCCNC(=N)N)C(=O)NCC(N)=O", "Ki": "> 100"},
      {"compound": "C[C@@H](O)[C@H](N)C(=O)N1CCC[C@H]1C(=O)N[C@@H](CCCN=C(N)N)C(=O)NC1(C(=O)N[C@@H](CCCN=C(N)N)C(=O)N[C@@H](CCCN=C(N)N)C(=O)N[C@@H](CCCN=C(N)N)C(=O)N[C@@H](CCCCN)C(=O)N[C@@H](CCCCN)C(=O)N[C@@H](CCCN=C(N)N)C(=O)NCC(N)=O)CCCC1", "Ki": "> 100"},
      {"compound": "C[C@@H](O)[C@H](N)C(=O)N1CCC[C@H]1C(=O)N[C@@H](CCC(N)=O)C(=O)N[C@@H](CCCNC(=N)N)C(=O)NC1(C(=O)N[C@@H](CCCNC(=N)N)C(=O)N[C@@H](CCCNC(=N)N)C(=O)N[C@@H](CCCNC(=N)N)C(=O)N[C@@H](CCCCN)C(=O)N[C@@H](CCCCN)C(=O)NC2(C(=O)NCC(=O)O)CCCC2)CCCC1", "Ki": "> 100"},
      {"compound": "C[C@H](O)[C@H](N)C(=O)N1CCC[C@H]1C(=O)N[C@@H](CCCNC(=N)N)C(=O)N[C@H](CCC(=O)O)C(=O)N[C@@H](CCCNC(=N)N)C(=O)N[C@@H](CCCNC(=N)N)C(=O)N[C@@H](CCCNC(=N)N)C(=O)N[C@@H](CCCCN)C(=O)N[C@@H](CCCCN)C(=O)N[C@@H](CCCNC(=N)N)C(=O)NCC(N)=O", "Ki": "> 100"},
      {"compound": "C[C@H](NC(=O)[C@H](CCCNC(=N)N)NC(=O)[C@H](CCC(N)=O)NC(=O)[C@@H]1CCCN1C(=O)[C@@H](N)[C@@H](C)O)C(=O)N[C@@H](CCCNC(=N)N)C(=O)N[C@@H](CCCNC(=N)N)C(=O)N[C@@H](CCCNC(=N)N)C(=O)N[C@@H](CCCCN)C(=O)N[C@@H](CCCCN)C(=O)N[C@@H](CCCNC(=N)N)C(=O)N[C@H](CCCCN)C(=O)O", "Ki": "> 100"},
      {"compound": "C[C@@H](O)[C@H](N)C(=O)N1CCC[C@H]1C(=O)N[C@@H](CCCNC(=N)N)C(=O)NCCCCCC(=O)N[C@@H](CCCNC(=N)N)C(=O)N[C@@H](CCCNC(=N)N)C(=O)N[C@@H](CCCNC(=N)N)C(=O)N[C@@H](CCCCN)C(=O)N[C@@H](CCCCN)C(=O)N[C@@H](CCCNC(=N)N)C(=O)NCC(N)=O", "Ki": "> 100"},
      {"compound": "C[C@H](NC(=O)[C@H](CCCN=C(N)N)NC(=O)[C@H](CCC(N)=O)NC(=O)[C@@H]1CCCN1C(=O)[C@@H](N)[C@@H](C)O)C(=O)N[C@@H](CCCN=C(N)N)C(=O)N[C@@H](CCCN=C(N)N)C(=O)N[C@@H](CCCN=C(N)N)C(=O)N[C@@H](CCCCN)C(=O)N[C@@H](CCCCN)C(=O)N[C@@H](CCCN=C(N)N)C(=O)N[C@@H](CCCN=C(N)N)C(=O)O", "Ki": "> 100"},
      {"compound": "CSC[C@H](NC(=O)[C@H](CCCNC(=N)N)NC(=O)[C@H](CCC(N)=O)NC(=O)[C@@H]1CCCN1C(=O)[C@@H](N)[C@@H](C)O)C(=O)N[C@@H](CCCNC(=N)N)C(=O)N[C@@H](CCCNC(=N)N)C(=O)N[C@@H](CCCNC(=N)N)C(=O)N[C@@H](CCCCN)C(=O)N[C@@H](CCCCN)C(=O)N[C@@H](CCCNC(=N)N)C(=O)NCC(=O)O", "Ki": "> 100"},
      {"compound": "CCCC[C@H](NC(=O)[C@H](CCCNC(=N)N)NC(=O)[C@H](CCC(N)=O)NC(=O)[C@@H]1CCCN1C(=O)[C@@H](N)[C@@H](C)O)C(=O)N[C@@H](CCCNC(=N)N)C(=O)N[C@@H](CCCNC(=N)N)C(=O)N[C@@H](CCCNC(=N)N)C(=O)N[C@@H](CCCCN)C(=O)N[C@@H](CCCCN)C(=O)N[C@@H](CCCNC(=N)N)C(=O)NCC(=O)O", "Ki": "> 100"},
      {"compound": "C[C@H](NC(=O)[C@H](C)NC(=O)[C@H](CCCN=C(N)N)NC(=O)[C@H](CCCN=C(N)N)NC(=O)[C@H](CCCN=C(N)N)NC(=O)[C@H](CCC(=O)O)NC(=O)[C@H](CCCN=C(N)N)NC(=O)[C@@H]1CCCN1C(=O)[C@@H](N)[C@@H](C)O)C(=O)N[C@@H](CCCN=C(N)N)C(=O)N(C)CC(=O)O", "Ki": "> 100"},
      {"compound": "C[C@H](NC(=O)[C@H](C)NC(=O)[C@H](CCCNC(=N)N)NC(=O)[C@H](CCCNC(=N)N)NC(=O)[C@H](CCCNC(=N)N)NC(=O)[C@H](CCC(=O)O)NC(=O)[C@H](CCCNC(=N)N)NC(=O)[C@@H]1CCCN1C(=O)[C@@H](N)[C@@H](C)O)C(=O)N[C@@H](CCCNC(=N)N)C(=O)NCC(=O)O", "Ki": "> 100"}
    ]}
  ]
}
